Assays:
[1] = system: ROS; assay: Cellular ROS production in islets (DCFDA assay); format: cell-based, mice
Protocol: Measurement of Cellular ROS Production. Islets were incubated with KR buffer containing 0.01% (w/v) bovine serum albumin (BSA), 16 mM HEPES, and 2.8 mM glucose for 60 min at 37° C. ROS measurements were measured by using the DCFDA Cellular ROS Detection Assay Kit (Abcam/Mitosciences) in a 96-well dark microplate in accordance with the manufacturer's guidelines. Briefly, 30 islets were seeded into each well. On the day of the experiment, the islets were washed with 1×phosphate buffered saline and stained with 20 μM DCFH-DA in the dark for 30 min at 37° C. After incubation, DCFH-DA was removed, and the islets were washed with 1×buffer solution. Islets were seeded in a 96-well plate followed by high glucose alone or in combination with CPX glucose treatment and iron citrate alone or in combination with CPX treatment. Samples were analyzed using a Varioskan Flash micro-plate reader (Thermo-Scientific) with excitation wavelength at 485 nm and an emission wavelength at 535 nm. Tert-Butyl hydroperoxide (TBHP) was used as positive control.

[2] = system: p21; assay: p21 expression in the pancreas of mice that received CPX (immunoblot); format: in vivo; details: wild type mice, oral CPX 0-25 mg/kg daily for 5 days; effect from as low as 5 mg/kg (FIG. 4)
Protocol: Western Blotting. The mouse islets were treated with CPX 20 μM for 24 h and lysed in RIPA buffer [50 mM Tris, pH 7.2; 150 mM NaCl; 1% sodium deoxycholate; 0.1% SDS; 1% Triton-X 100; 10 mM NaF; 1 mM Na3VO4; protease inhibitor cocktail (1:1000, Sigma, St. Louis, Mo.)] and were subjected to immunoblot analysis by standard methods. Proteins were resolved on a 10% SDS-PAGE and transferred to a nitrocellulose membrane (Bio-Rad, Hercules, Calif.). […] After incubation with enhanced chemiluminescence reagents (Santa Cruz biotechnology Inc.), membranes were analyzed using an Image J software for Windows. To determine if CPX treatment induces p21 levels in the pancreas, mice received orally CPX at 0-25 mg/kg daily for 5 days and the levels of p21 were assessed. […]

[3] = system: C57BI/6 mice; assay: Glucose tolerance test (i.p. 2 g glucose/kg); format: in vivo
Protocol: Glucose Level Determination and Intraperitoneal Insulin Tolerance Test. Mice were fasted for 6 h. Glucose levels of mice were measured by an Accu-Chek Active meter (ROCHE) with blood sample obtained from the tail. For glucose tolerance, mice were injected i.p. with 2 g glucose/kg blood glucose was checked at different time points as indicated (at either 0, 30, 60, 90, 120, 160, 220 min.). For insulin resistance test, mice were injected intraperitoneally at a dose of 0.75 units/kg with human insulin (0.75 U/kg body weight; Sigma) at different time points as indicated, as for glucose tolerance after insulin injection and blood glucose was measured as described.

[4] = system: diabetic wt mice; assay: Fasting glucose in diet-induced diabetic wild type mice; format: in vivo, C57BI/6 mice; details: wt mice diabetic by high fat diet and sweetened water; CPX 25 mg/kg daily (FIG. 5A)
Source text: In Vivo Analysis of Anti-Diabetic Effect of CPX. Mice were randomly grouped. A group of C57BI/6 mice 4-5 weeks old, were fed with either a solution of 10% sucrose and a diet containing 40% kcal as a high-fat diet (HFD; Open Source Diets (New Brunswick, N.J., USA) D12451, 40% calories/fat with free access to (10%) sweetened water (sucrose) or a control chow diet containing 10% of kcal as fat (low-fat diet) and drinking water with no added sucrose (control). Mice with a glucose concentration exceeding 180 mg/dL were considered diabetic, after 2 consecutive glucose measurements. The blood glucose levels were measured using an Accu-Check blood glucose monitor (Roche, Indianapolis, Ind., USA) using blood sample collected from the tail vein. Diabetic mice were treated with either treated daily for 20 days by oral gavages with CPX (25 mg/kg) prepared in a solution (4% ethanol, 5.2% Tween 80, and 5.2% PEG 400) or vehicle control. […] Glucose levels of mice were measured by an Accu-Chek Active meter (ROCHE) with blood sample obtained from the tail. […] For insulin resistance test, mice were injected intraperitoneally at a dose of 0.75 units/kg with human insulin (0.75 U/kg body weight; Sigma) at different time points as indicated, as for glucose tolerance after insulin injection and blood glucose was measured as described. […]

## Cc1cc(C2CCCCC2)n(O)c(=O)c1 [CPX, 6-cyclohexyl-1-hydroxy-4-methylpyridin-2(1H)-one]
[1]; ROS triggered by high glucose (FIG. 12B)
  ROS production: potent inhibitor of ROS
[1]; ROS triggered by iron citrate (FIG. 12B)
  ROS production: potent inhibitor of ROS
[2]
  p21 expression in the pancreas: effectively stimulated the expression of p21
[3]; diabetic mice, CPX vs saline (FIG. 6A)
  glucose tolerance: restored the response of diabetic mice to acute administration of glucose
[3]; non-diabetic wt mice on normal diet, CPX vs saline (FIG. 7B)
  glucose tolerance: not affected
[4]
  blood glucose levels (fasting glucose): effectively improved glucose homeostasis causing reduction of blood glucose levels
